According to patent US9320276B2, “N-hetarylmethyl pyrazolylcarboxamides” (BAYER INTELLECTUAL PROPERTY GMBH, priority 2010, dated 2016):

How the values were obtained:
[1] = tested on: Pyrenophora teres; assay: in vivo preventive test on Pyrenophora teres (barley); settings: 500 ppm of active ingredient, evaluated 7-9 days after inoculation
How it was run: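 Young barley plants sprayed with compound in DMF/alkylaryl polyglycol ether emulsion; inoculated with P. teres spores one day later. 48 h at 22 °C, 100% humidity, then greenhouse ~20 °C, ~80% humidity; efficacy scored 7-9 days post-inoculation, 0% = untreated, 100% = no disease.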

[2] = tested on: Blumeria graminis fsp. hordei; assay: in vivo preventive test on Blumeria graminis (barley); settings: 500 ppm of active ingredient, evaluated 7 days after inoculation
Description: Solvent: 49 parts by weight of N,N-dimethylacetamide Emulsifier: 1 part by weight of alkylaryl polyglycol ether To produce a suitable preparation of active compound, 1 part by weight of active compound or active compound combination is mixed with the stated amounts of solvent and emulsifier, and the concentrate is diluted with water to the desired concentration. To test for preventive activity, young plants are sprayed with the preparation of active compound or active compound combination at the stated rate of application. After the spray coating has been dried, the plants are dusted with spores of Blumeria graminis fsp. hordei. The plants are placed in the greenhouse at a temperature of approximately 18° C. and a relative atmospheric humidity of approximately 80% to promote the development of mildew pustules. The test is evaluated 7 days after the inoculation. 0% means an efficacy which corresponds to that of the untreated control, while an efficacy of 100% means that no disease is observed.

[3] = tested on: Fusarium nivale (var. majus); assay: in vivo curative test on Fusarium nivale (wheat); settings: 500 ppm of active ingredient, evaluated 5 days after inoculation
Description: Solvent: 49 parts by weight of N,N-dimethylacetamide Emulsifier: 1 part by weight of alkylaryl polyglycol ether To produce a suitable preparation of active compound, 1 part by weight of active compound or active compound combination is mixed with the stated amounts of solvent and emulsifier, and the concentrate is diluted with water to the desired concentration. To test for curative activity, young plants are slightly injured by using a sandblast and afterwards they are sprayed with a conidia suspension of Fusarium nivale (var. majus) and placed for 24 hours in a greenhouse under a translucent incubation cabinet at a temperature of approximately 10° C. and a relative atmospheric humidity of approximately 100% and are subsequently sprayed with the preparation of active compound at the stated rate of application. After the spray coating has been dried, the plants remain in the greenhouse under translucent incubation cloches at a temperature of approximately 10° C. and a relative atmospheric humidity of approximately 100%. The test is evaluated 5 days after the inoculation. 0% means an efficacy which corresponds to that of the untreated control, while an efficacy of 100% means that no disease is observed.

[4] = tested on: Leptosphaeria nodorum; assay: in vivo preventive test on Leptosphaeria nodorum (wheat); settings: 500 ppm of active ingredient, evaluated 7-9 days after inoculation
Description: Solvent: 49 parts by weight of N,N-dimethylacetamide Emulsifier: 1 part by weight of alkylaryl polyglycol ether To produce a suitable preparation of active compound, 1 part by weight of active compound is mixed with the stated amounts of solvent and emulsifier, and the concentrate is diluted with water to the desired concentration. To test for preventive activity, young plants are sprayed with a preparation of active compound at the stated rate of application. One day after this treatment, the plants are inoculated with an aqueous spore suspension of Leptosphaeria nodorum. The plants remain for 48 hours in an incubation cabinet at 22° C. and a relative atmospheric humidity of 100%. Then the plants are placed in a greenhouse at a temperature of approximately 22° C. and a relative atmospheric humidity of approximately 90%. The test is evaluated 7-9 days after the inoculation. 0% means an efficacy which corresponds to that of the untreated control, while an efficacy of 100% means that no disease is observed.

[5] = tested on: Sphaerotheca fuliginea; assay: in vivo preventive test on Sphaerotheca fuliginea (cucumber); settings: 500 ppm of active ingredient, evaluated 7 days after inoculation
Description: Solvent: 49 parts by weight of N,N-dimethylformamide Emulsifier: 1 part by weight of Alkylarylpolyglycolether To produce a suitable preparation of active compound, 1 part by weight of active compound is mixed with the stated amounts of solvent and emulsifier, and the concentrate is diluted with water to the desired concentration. To test for preventive activity, young plants are sprayed with the preparation of active compound at the stated rate of application. One day after this treatment, the plants are inoculated with an aqueous spore suspension of Sphaerotheca fuliginea. Then the plants are placed in a greenhouse at approximately 23° C. and a relative atmospheric humidity of approximately 70%. The test is evaluated 7 days after the inoculation. 0% means an efficacy which corresponds to that of the untreated control, while an efficacy of 100% means that no disease is observed.

[6] = logP by HPLC on reversed-phase column (EEC Directive 79/831 Annex V.A8); assay type: physicochemical; settings: 40° C., 0.1% aqueous formic acid and acetonitrile, linear gradient 10% to 90% acetonitrile
How it was run: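 Reversed-phase C18 HPLC at 40° C with 0.1% aqueous formic acid/acetonitrile, linear gradient 10% to 90% acetonitrile. LogP obtained from retention time by linear interpolation between successive unbranched alkan-2-ones (3 to 16 carbons) of known logP. Lambda-max taken from UV spectra at 200-400 nm at chromatographic peak maxima.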

[7] = tested on: Septoria tritici; assay: in vivo preventive test on Septoria tritici (wheat); settings: 500 ppm of active ingredient, evaluated 21 days after inoculation
Description: Solvent: 49 parts by weight of N,N-dimethylacetamide Emulsifier: 1 part by weight of alkylaryl polyglycol ether To produce a suitable preparation of active compound, 1 part by weight of active compound or active compound combination is mixed with the stated amounts of solvent and emulsifier, and the concentrate is diluted with water to the desired concentration. To test for preventive activity, young plants are sprayed with the preparation of active compound or active compound combination at the stated rate of application. After the spray coating has been dried, the plants are sprayed with a spore suspension of Septoria tritici. The plants remain for 48 hours in an incubation cabinet at approximately 20° C. and a relative atmospheric humidity of approximately 100% and afterwards for 60 hours at approximately 15° C. in a translucent incubation cabinet at a relative atmospheric humidity of approximately 100%. The plants are placed in the greenhouse at a temperature of approximately 15° C. and a relative atmospheric humidity of approximately 80%. The test is evaluated 21 days after the inoculation. 0% means an efficacy which corresponds to that of the untreated control, while an efficacy of 100% means that no disease is observed.

[8] = HPLC on reversed-phase column (C 18)

Structure (SMILES) | Efficacy [1] | Efficacy [2] | Efficacy [3] | Efficacy [4] | Efficacy [5] | logP ([6]; HPLC, reversed-phase column (C 18)) | Efficacy [7] | logP [6, 8]
CC(C)c1nn(-c2ccccc2)c(Cl)c1CN(C(=O)c1c(C(F)F)nn(C)c1F)C1CC1 [Example 169] | 100% | 100% | 83% | 100% | 100% | 3.94 | 100% | –
CC(c1cc2ccccc2o1)N(C(=O)c1c(C(F)F)nn(C)c1F)C1CC1 (racemic) [Example 70] | 100% | 80% | 100% | 83% | 98% | – | 100% | 3.42
Cn1nc(C(F)F)c(C(=S)N(Cc2cccc3ccsc23)C2CC2)c1F [Example 95] | 100% | 100% | 86% | – | 88% | – | 80% | 3.83
CC(c1cc(Cl)sc1Cl)N(C(=O)c1c(C(F)F)nn(C)c1F)C1CC1 (stereo not drawn) [Example 128] | 100% | 100% | 100% | 100% | 98% | – | 90% | 4.03
Cc1sc(-c2ccccc2)cc1C(C)N(C(=O)c1c(C(F)F)nn(C)c1F)C1CC1 (stereo not drawn) [Example 147] | 100% | 70% | 92% | 93% | 88% | – | 80% | 4.41
CC(c1cc2ccccc2s1)N(C(=O)c1c(C(F)F)nn(C)c1F)C1CC1 (racemic) [Example 80] | 100% | 86% | 93% | 100% | 99% | – | 100% | 3.69
CC(c1cccc2ccsc12)N(C(=O)c1c(C(F)F)nn(C)c1F)C1CC1 (stereo not drawn) [Example 91] | 100% | 94% | 71% | 100% | 88% | – | 100% | 3.44
